Data from ChEMBL document CHEMBL1132991, “Conformational selection of inhibitors and substrates by proteolytic enzymes: implications for drug design and polypeptide processing” (J Med Chem, 2000).

Biological target: Human immunodeficiency virus type 1 protease (Human immunodeficiency virus 1, UniProt Q72874)
Experiment: binding affinity towards HIV-1 Protease enzyme

## CC[C@H](C)[C@@H]1NC(=O)[C@@H](NC(=O)[C@@H]2Cc3ccc(cc3)OCCCCC(=O)N[C@@H](C(C)C)C(=O)N2)Cc2ccc(cc2)OCCCNC1=O
  Ki: 800 nM

## CC[C@H](C)[C@@H]1NC(=O)[C@@H](C(N)C[C@@H](O)C(Cc2ccccc2)NC(=O)OC(C)(C)C)Cc2ccc(cc2)OCCCNC1=O (stereo partly drawn)
  Ki: 4 nM

## CC[C@@H](C)[C@H](NC(=O)[C@H](Cc1ccccc1)NC(=O)[C@H](Cc1ccccc1)NC(=O)[C@@H](NC(=O)[C@H](CC(C)C)NC(C)=O)C(C)C)C(=O)N[C@H](C(N)=O)C(C)C
  Ki: 60000 nM

## CC[C@H](C)[C@@H]1NC(=O)[C@@H](C(N)C[C@@H](O)[C@@H]2Cc3ccc(cc3)OCCCCC(=O)N[C@@H](C(C)C)C(=O)N2)Cc2ccc(cc2)OCCCNC1=O (stereo partly drawn)
  Ki: 3 nM

## CC(C)C[C@H](CC(=O)NO)C(=O)N[C@H]1Cc2cn(c3ccccc23)CCCCCCNC1=O
  Ki: 1 nM

## CC[C@H](C)[C@H](NC(=O)[C@H](Cc1ccccc1)NC[C@H](O)[C@@H]1Cc2ccc(cc2)OCCCC(=O)N[C@@H](CC(N)=O)C(=O)N1)C(=O)N[C@H](C(N)=O)C(C)C
  Ki: 12 nM

## N=C(N)NCCC[C@H]1NC(=O)[C@@H]2CCCN2C(=O)[C@@H](NC=O)CNC(=O)/C=C/C(Cc2ccc(O)cc2)NC(=O)[C@@H](Cc2ccccc2)NC(=O)C1=O (stereo partly drawn)
  Ki: 10 nM

## CC(C)C[C@@H](NC(=O)[C@H](O)COS(=O)(=O)O)C(=O)N[C@@H]1C(=O)N[C@@H](CCCNC(=N)N)C(=O)N[C@H]2CC[C@H](O)N(C2=O)[C@@H](CC(C)C)C(=O)N(C)[C@H](Cc2ccc(O)cc2)C(=O)N[C@H](C(C)C)C(=O)O[C@@H]1C [PROTEOLYTIC ENZYME INHIBITOR]
  Ki: 1 nM
